According to ChEMBL document CHEMBL1201862, “PubChem BioAssay data set” (2004):
Activity calls are given as the source filed them.

Tests used:
[1] = cells; format: functional, cell-based
[2] = cells; format: functional, cell-based; remark: listed apart in the source
[3] = target: T1, Methionyl-tRNA synthetase, putative (Trypanosoma brucei brucei, UniProt Q38C91); format: functional, Trypanosoma brucei brucei strain 927/4 GUTat10.1
T1 sequence (Q38C91 whole entry): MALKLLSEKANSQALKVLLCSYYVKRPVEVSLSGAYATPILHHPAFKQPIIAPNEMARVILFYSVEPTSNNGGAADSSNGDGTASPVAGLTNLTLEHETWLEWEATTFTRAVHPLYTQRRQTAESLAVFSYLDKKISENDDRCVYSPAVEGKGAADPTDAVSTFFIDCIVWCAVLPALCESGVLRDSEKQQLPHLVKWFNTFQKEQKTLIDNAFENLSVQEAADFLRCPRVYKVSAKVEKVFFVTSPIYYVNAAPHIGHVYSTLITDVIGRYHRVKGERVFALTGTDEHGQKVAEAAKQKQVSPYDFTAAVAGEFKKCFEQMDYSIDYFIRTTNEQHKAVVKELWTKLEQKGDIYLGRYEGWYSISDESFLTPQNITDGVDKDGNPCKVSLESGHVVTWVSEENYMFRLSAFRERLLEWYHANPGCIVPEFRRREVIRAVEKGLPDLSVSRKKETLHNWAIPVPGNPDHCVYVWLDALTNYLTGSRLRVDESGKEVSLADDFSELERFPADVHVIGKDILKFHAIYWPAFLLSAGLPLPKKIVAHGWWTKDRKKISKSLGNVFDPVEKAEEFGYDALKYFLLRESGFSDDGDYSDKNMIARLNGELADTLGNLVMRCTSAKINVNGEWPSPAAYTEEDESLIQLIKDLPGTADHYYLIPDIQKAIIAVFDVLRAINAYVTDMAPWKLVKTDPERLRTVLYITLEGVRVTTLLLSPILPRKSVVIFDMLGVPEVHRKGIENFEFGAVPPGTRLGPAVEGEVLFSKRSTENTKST

[4] = Counterscreen for inhibitors of Trypanosoma brucei methionyl tRNA synthetase (MetRS): Luminescence-based cell-based high throughput dose response assay to identify compounds that are cytotoxic to Jurkat human T lymphocyte cells.; format: functional
[5] = target: T1, Methionyl-tRNA synthetase, putative; format: functional, Trypanosoma brucei brucei strain 927/4 GUTat10.1; remark: listed apart in the source
[6] = HEp-2 cell cytotoxicity, dose response, cytotoxicity control for RSV inhibitor project, HTS (AID 2410); format: functional; conditions: human respiratory syncytial virus
[7] = system: BJ; assay: cytotoxicity toward BJ-TERT fibroblasts, dose response, cell-based, RAS-independent, luminescence (AID 1933); format: functional; conditions: Homo sapiens
[8] = system: BJ; assay: cells; format: functional, cell-based; conditions: Homo sapiens
[9] = inhibitors of intracellular T. cruzi replication, confirmation, NIH3T3 host cells, beta-gal luminescence (AID 2044); format: functional, cell-based;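 further: intracellular parasites grown in NIH/3T3 mouse fibroblasts as host cells; luminescent beta-galactosidase reporter signal from transgenic T. cruzi replicating inside host cells; inhibitors lower the luminescence signal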
[10] = system: BJ; assay: cytotoxicity toward BJ-TERT-LT-ST fibroblasts, dose response, cell-based, RAS-independent, luminescence (AID 1935); format: functional; conditions: Homo sapiens;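 further: BJ fibroblasts immortalized with TERT plus LT and ST oncogenes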
[11] = cytotoxicity toward DRD oncogenic fibroblasts, dose response, cell-based, non-viral oncogenic, luminescence (AID 1934); format: functional; conditions: Homo sapiens
[12] = target: T2, Microphthalmia-associated transcription factor (Homo sapiens, UniProt O75030); assay: TRPM1 promoter luciferase signal decrease, dose response, MITF inhibitor project, cell-based, SK-MEL-5, cherry-picked, set 3 (AID 493073); format: functional
T2 sequence (O75030 whole entry): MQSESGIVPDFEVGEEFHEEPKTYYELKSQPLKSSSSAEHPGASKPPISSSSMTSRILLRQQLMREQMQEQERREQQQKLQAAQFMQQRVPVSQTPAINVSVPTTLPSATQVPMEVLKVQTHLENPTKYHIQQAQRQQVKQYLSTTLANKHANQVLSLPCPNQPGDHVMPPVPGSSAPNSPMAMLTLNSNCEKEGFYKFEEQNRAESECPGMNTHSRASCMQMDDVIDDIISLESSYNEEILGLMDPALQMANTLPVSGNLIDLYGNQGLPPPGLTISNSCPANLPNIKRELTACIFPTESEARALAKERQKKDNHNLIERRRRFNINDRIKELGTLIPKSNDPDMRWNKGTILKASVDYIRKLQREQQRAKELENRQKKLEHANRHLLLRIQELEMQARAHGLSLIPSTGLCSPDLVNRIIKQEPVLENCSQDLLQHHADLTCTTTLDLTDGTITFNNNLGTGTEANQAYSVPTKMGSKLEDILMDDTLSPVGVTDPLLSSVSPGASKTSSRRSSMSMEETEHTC

[13] = target: Beta-2 adrenergic receptor (Homo sapiens, UniProt P07550); assay: beta2AR agonists driving receptor internalization, dose response, cell-based, FAP fluorogen, flow cytometry, cherry pick 1 (AID 588763); format: functional
[14] = A549 cell cytotoxicity, dose response, cytotoxicity control, plate reader, cherry-pick, antagonist series (AID 743412); format: functional, cell-based
[15] = LGR2 antagonists, dose response, cell-based, HEK293, CRE-luciferase reporter, cherry pick, set 2 (AID 743343); format: functional;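 further: transfected cells were stimulated with diluted bursicon conditioned medium after compound addition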
[16] = MC4R antagonists, dose response, counter-screen for LGR2 antagonist project, cell-based, plate reader, cherry pick (AID 743444); format: functional;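 further: transfected HEK 293 cells stimulated with alpha-MSH peptide; potency of inhibitors of the alpha-MSH evoked signal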
[17] = system: HeLa; assay: HeLa cell cytotoxicity, dose response, cytotoxicity control for MITF activator project, CellTiter-Glo luminescence, cherry-pick samples (AID 540259); format: functional, cell-based; conditions: Homo sapiens
[18] = microbe, parasite or virus in culture; format: functional; conditions: Mycobacterium tuberculosis
[19] = target: T3, Polyadenylate-binding protein 1 (Homo sapiens, UniProt P11940); assay: PABP1 MLLE–PAM2 interaction inhibitors, dose response, miRNA deadenylation inhibitor project, biochemical, fluorescence polarization, Cy5-PAM2 peptide, secondary (AID 602260); format: functional; conditions: read-out: IC50_Mean
[20] = target: T3, Polyadenylate-binding protein 1; assay: PABP1 MLLE–PAM2 binding inhibitor potency, dose response, biochemical, fluorescence polarization, FITC-PAM2 peptide (AID 602259); format: functional; conditions: read-out: IC50_Mean
[21] = system: BJ; assay: cytotoxicity toward Ras-transformed BJeLR fibroblasts, dose response, cell-based, alamar blue fluorescence, cherrypicked samples (AID 2631); format: functional; conditions: Homo sapiens;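 further: confirmatory dose-response assay in RAS-dependent BJ fibroblasts engineered with TERT, LT and ST, with cytotoxicity read by fluorescence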
[22] = system: Vero; assay: host cell cytotoxicity of antiviral hits, dose response, cytotoxicity control for West Nile virus antiviral project, secondary assay (AID 1650); format: functional; conditions: Chlorocebus sabaeus
[23] = target: Eukaryotic translation initiation factor 4E (Mus musculus, UniProt P63073); assay: eIF4E–eIF4G protein interaction inhibitors, dose response, biochemical, TR-FRET (AID 855); format: functional;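 further: potency for disrupting eIF4E binding to eIF4GI seen as loss of FRET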
[24] = system: Vero; assay: cells; format: functional; conditions: Chlorocebus sabaeus

Sequence of Beta-2 adrenergic receptor (P07550 whole entry): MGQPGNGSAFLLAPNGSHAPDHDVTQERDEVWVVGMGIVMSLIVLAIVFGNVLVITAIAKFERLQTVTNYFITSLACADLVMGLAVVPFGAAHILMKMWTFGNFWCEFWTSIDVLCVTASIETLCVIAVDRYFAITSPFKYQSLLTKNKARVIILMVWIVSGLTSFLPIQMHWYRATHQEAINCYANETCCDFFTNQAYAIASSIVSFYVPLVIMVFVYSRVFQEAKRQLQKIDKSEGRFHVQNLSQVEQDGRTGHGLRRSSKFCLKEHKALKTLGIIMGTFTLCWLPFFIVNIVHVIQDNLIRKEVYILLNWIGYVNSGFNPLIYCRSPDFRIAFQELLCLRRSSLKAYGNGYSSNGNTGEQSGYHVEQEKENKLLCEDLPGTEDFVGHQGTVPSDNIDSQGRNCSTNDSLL
T3 sequence (P11940 whole entry): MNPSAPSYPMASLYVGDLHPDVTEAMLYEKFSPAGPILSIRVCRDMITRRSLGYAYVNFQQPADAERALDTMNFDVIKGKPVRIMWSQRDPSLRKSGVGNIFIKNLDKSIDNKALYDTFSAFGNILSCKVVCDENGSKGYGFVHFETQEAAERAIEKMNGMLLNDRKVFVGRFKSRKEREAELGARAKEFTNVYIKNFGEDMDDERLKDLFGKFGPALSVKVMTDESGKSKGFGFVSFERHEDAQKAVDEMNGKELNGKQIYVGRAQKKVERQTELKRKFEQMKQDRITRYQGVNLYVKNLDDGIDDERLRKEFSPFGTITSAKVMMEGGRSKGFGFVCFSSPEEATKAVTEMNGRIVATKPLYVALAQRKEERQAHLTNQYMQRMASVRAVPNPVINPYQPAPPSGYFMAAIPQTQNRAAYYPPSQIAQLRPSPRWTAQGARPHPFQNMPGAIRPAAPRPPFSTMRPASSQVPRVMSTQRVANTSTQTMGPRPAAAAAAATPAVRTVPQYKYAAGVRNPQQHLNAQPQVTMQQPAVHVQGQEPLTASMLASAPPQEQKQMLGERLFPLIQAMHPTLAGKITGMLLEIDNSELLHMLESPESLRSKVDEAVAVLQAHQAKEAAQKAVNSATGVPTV
Sequence of Eukaryotic translation initiation factor 4E (P63073 whole entry): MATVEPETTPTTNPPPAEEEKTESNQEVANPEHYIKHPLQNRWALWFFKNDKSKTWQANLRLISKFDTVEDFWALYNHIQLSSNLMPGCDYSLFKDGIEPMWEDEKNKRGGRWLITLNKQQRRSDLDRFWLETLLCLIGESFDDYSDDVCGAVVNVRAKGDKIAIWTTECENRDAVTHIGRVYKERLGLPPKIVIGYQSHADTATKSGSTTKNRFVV

In the case of `O=C(Cn1cnc([N+](=O)[O-])c1)NCCc1ccccc1`, the IC50 [1] is reported as > 29.9 µM (inactive) and the EC50 [2] is reported as > 29.9 µM (inactive).

For `Cc1ccc(NC(=O)CN2C(=O)CN=C(c3ccccc3)c3cc(Cl)ccc32)cc1`, the IC50 [3] was 6.78 µM (active), the IC50 [4] was 6.39 µM (active) and the IC50 [5] was 2.82 µM (active).

With `O=C(COC(=O)c1ccccc1C(=O)c1ccc(Cl)c([N+](=O)[O-])c1)NC1CC1` the CC50 [6] was 10.2 µM (active), the EC50 [7] was 5.11 µM (active) and the EC50 [8] was 6.82 µM (inconclusive). For the same compound, the EC50 [9] was 3.79 µM (active), the EC50 [10] was 92.6 µM (inconclusive) and the EC50 [11] was 10.1 µM (inconclusive). For the same compound, the AC50 [12] was 8.92 µM (active), the EC50 [13] was 13.3 µM (inactive) and the AC50 [14] was 7.05 µM (active). The AC50 [15] was 11.8 µM (active) and the AC50 [16] was 15.4 µM (active).

For `Clc1cccc(N/N=C(\Cc2nc3ccccc3[nH]2)c2ccccc2)c1`, the IC50 [3] was 4.59 µM (active), the IC50 [4] was 62.2 µM (inactive) and the IC50 [5] was 3.09 µM (active).

With `CCC(=O)N1CCc2cc(Br)cc(S(=O)(=O)N(C)c3ccc(OC)cc3)c21` the EC50 [13] was 0.0271 µM (active).

With `CCCc1ccc(OCc2nc(-c3ccc(NC(=O)c4cccs4)cc3)no2)cc1` the AC50 [17] was 49.1 µM (active) and the EC50 [13] was 0.539 µM (active).

For `O=C(c1ccccc1)c1ccc2c(c1)N=C1CCCC(O)=C1C1c3ccccc3C(=O)N21` (configuration not stated), the CC50 [18] was 28.9 µM (active).

In the case of `NC(=O)c1cccc(-c2cc(Nc3ccc(OC(F)(F)F)cc3)ncn2)c1`, the CC50 [18] is reported as > 40 µM (active).

With `O=C(CSc1n[nH]c2c3ccccc3nc-2n1)Nc1ccc2c(c1)OCO2` the IC50 [19] was > 66 µM (inactive), the IC50 [20] was > 66 µM (inactive) and the IC50 [3] was 4.39 µM (active). The IC50 [4] was 83.3 µM (inactive) and the IC50 [5] was 1.57 µM (active).

With `CCc1ccc(NC(=O)[C@H](Cc2c[nH]c3ccccc23)NC(=O)[C@@H]2Cc3ccccc3CN2)cc1` the EC50 [7] was > 150 µM (not active), the EC50 [8] was 10.8 µM (active) and the EC50 [10] was > 150 µM (not active). For the same compound, the EC50 [11] was > 150 µM (inconclusive) and the EC50 [21] was > 133 µM (inactive).

With `Cc1ccc(/C=C/C(O)=C2/C(=O)N(C)C3(C)CC2c2ccccc2O3)cc1` (configuration not stated) the CC50 [22] was 41 µM (active), the IC50 [23] was > 64 µM (inactive) and the CC50 [24] was 15.4 µM (active).
